One experiment relates to 90-8 cells. Briefly: cell growth, direct counting of cells, FTS dose-response. As to conditions: Homo sapiens, 72 h, grown three days, FTS 12.5-100 μM, means±SD, n=4, read-out: estimated IC50, decrease in cell number. Type of experiment: cell-based. The protocol:
(§1) The human NF-1 MPNST cell lines ST88-14, T265P21 and 90-8 and the non-NF-1 human MPNST cell line STS26T were obtained from Dr. Nancy Ratner. T265P21, 90-8, and ST88-14 cells were maintained in RPMI/15% fetal calf serum (FCS) medium and STS26T cells were maintained in DMEM/10% FCS, as described in Weisz, B., et al., supra. Cells were plated at a density of 1×10^6 cells per 10-cm plate for biochemical and immunoblotting assays, 2.5×10^3 cells/well in 24-well plates for cell-growth assays, or on glass cover slips (5×10^4 cells per 35-mm dish) for labeling of actin cytoskeletal elements. The cells were incubated for 24 hours, treated with the indicated concentration of FTS or with the vehicle (0.1% DMSO) (control) for the times specified in each of the experiments, and then subjected to the various assays as described below. The effect of FTS on cell growth was estimated by direct counting of cells collected from each well, as described in Weisz, B., et al., supra.
(§2) To determine the effects of the Ras inhibitor FTS on the growth rates of the NF-1 cell lines ST88-14, 90-8, T265P21 and the non-NF-1 STS26T cells, the cells were grown for two days in the absence and in the presence of 50 μM FTS, and then photomicrographed. […] Additionally, cells were grown for three days and then detached, collected, and counted as described in Methods to determine dose-dependent inhibition by FTS.

Experiment [1] deals with ST88-14 cells. Described as above. It is filed as cell-based. As to conditions: Homo sapiens, 72 h, grown three days, FTS 12.5-100 μM, means±SD, n=4, read-out: estimated IC50, decrease in cell number. The protocol: as §1, §2
A further experiment relates to STS26T cells. The description is as above. Type of experiment: cell-based. As to conditions: Homo sapiens, STS-26T, 72 h, grown three days, FTS 12.5-100 μM, means±SD, n=4, read-out: estimated IC50, decrease in cell number. The protocol: as §1, §2
Another experiment relates to T265P21 cells. The description is as above. Type of experiment: cell-based. As to conditions: Homo sapiens, 72 h, grown three days, FTS 12.5-100 μM, means±SD, n=4, read-out: estimated IC50, decrease in cell number. The protocol:
as §1, §2

In another experiment the test system is Ras. Kind of experiment: steady-state Ras levels, Western immunoblotting. Type of experiment: cell-based, human. As to conditions: 75 μM FTS, 48 hours, all cell lines, P<0.05. The protocol: Unless otherwise indicated, cells were lysed 48 hours after being treated with lysis buffer, as described in Haklai, et al., supra. […] Protein bands were visualized by ECL and quantified by densitometry with Image Master VDS-CL (Amersham) using TINA 2.0 software (Ray Tests). To obtain reliable comparisons between replicated experiments for statistical analysis, a standardization procedure was used, in which the density of each given protein band as recorded with its specific Ab, was normalized. […] The standard average density was defined as 1.0, and each of the individually determined bands was related to this value. […] Actin cytoskeletal elements were labeled with rhodamine-phalloidin, and digital fluorescence images were collected on a Zeiss LSM 510 confocal microscope fitted with fluorescein and rhodamine filters, as described in Gana-Weisz, M., et al., supra. […]

Experiment [2] concerns ST88-14 cells. Briefly: ST88-14 tumor growth in nude mice. It is filed as in vivo, nude CD1-Nu male mice. As to conditions: six weeks. The protocol: ST88-14 cells (5×10^6) in Matrigel were implanted subcutaneously (s.c.) just above the right femoral joint of nude CD1-Nu male mice (6 weeks old). Two weeks later palpable tumors were observed and the mice were separated randomly into vehicle-treated control and FTS-treated groups. Two types of treatment protocols were used. (1) The first protocol was intraperitoneal (i.p.) administration (0.1 mL) of vehicle, 1 mg/kg, 5 mg/kg or 10 mg/kg FTS (n=6 per group). The FTS solution was prepared in saline containing phosphate buffer as described in Haklai, et al., supra. (2) The second protocol was oral administration of FTS. Mice received vehicle or 20, 40, 60, or 80 mg/kg FTS (n=10 per group). The FTS mixture for oral administration was prepared in PBS/0.5% carboxymethyl cellulose. Mice were sacrificed 6 weeks after the start of the treatment, and tumors were removed and weighed. Student's t-test was used for data analysis.
[Ozerdem, U., Angiogenesis 7:307-11 (2004)]. Thus, to determine whether FTS inhibited tumor growth in the nude mouse model, two types of treatments were preformed. The first was i.p. administration of 1, 5, or 10 mg/kg FTS, as earlier described. [Weisz, B., et al., supra.]. The second was oral administration, which required higher FTS doses of 20, 40, 60, and 80 mg/kg. Six weeks after the treatment the mice were sacrificed and tumors were removed and weighed.

The text below walks through data of patent publication US20110046223A1, “TREATMENT OF NEUROFIBROMATOSIS” (RAMOT AT TEL-AVIV UNIVERSITY LTD., priority 2006, published 2011).

As for `CC(C)=CCC/C(C)=C/CC/C(C)=C/CSc1ccccc1C(=O)O` [FTS, S-farnesylthiosalicylic acid], the IC50 with 90-8 cells was 42 ± 9 µM; in the experiment on ST88-14 cells [1], 42 ± 13 µM; in the experiment with STS26T cells, 53 ± 10 µM; in the experiment on T265P21 cells, 35 ± 7 µM. The “reduction in Ras levels” value in the experiment on Ras is reported as 15-30%. Moreover, the “inhibition of tumor growth (tumor weight)” value in the experiment with ST88-14 cells [2] (i.p., 10 mg/kg FTS, P<0.05) is reported as 49%; in the experiment with ST88-14 cells [2] (oral, 80 mg/kg FTS, P<0.01), 58%. Further, the “tumor growth, dose dependence” value is “dose-dependent inhibition of tumor growth” in the experiment on ST88-14 cells [2] (i.p., 1, 5, or 10 mg/kg FTS); “dose-dependent inhibition of tumor growth” with ST88-14 cells [2] (oral, 20, 40, 60, and 80 mg/kg FTS).
